Measurements from ChEMBL document CHEMBL1944514, “Fluorescence detection of single nucleotide polymorphisms using nucleic acid probe containing tricyclic base-linked acyclonucleoside” (Bioorg Med Chem Lett, 2012).
Calls of active or inactive are those of the source. No cut-off for these calls is given here.

Experiments:
Type in all cases: nucleic-acid assay
[1] = tested on: Nucleic Acid; experiment: Binding affinity to 3'-r(CUUCCAGUUACAUAGAGA)-5' RNA assessed as change in melting temperature by spectrophotometry
[2] = tested on: Nucleic Acid; experiment: Binding affinity to 3'-r(CUUCCAGUUCCAUAGAGA)-5' RNA assessed as fluorescence quenching by spectrophotometry
[3] = tested on: Nucleic Acid; experiment: Binding affinity to 3'-r(CUUCCAGUUACAUAGAGA)-5' RNA assessed as fluorescence quenching by spectrophotometry
[4] = tested on: Nucleic Acid; experiment: Binding affinity to 3'-r(CUUCCAGUUGCAUAGAGA)-5' RNA assessed as change in melting temperature by spectrophotometry
[5] = tested on: Nucleic Acid; experiment: Binding affinity to 3'-r(CUUCCAGUUUCAUAGAGA)-5' RNA assessed as change in melting temperature by spectrophotometry
[6] = tested on: Nucleic Acid; experiment: Binding affinity to 3'-r(CUUCCAGUUCCAUAGAGA)-5' RNA assessed as change in melting temperature by spectrophotometry
[7] = tested on: Nucleic Acid; experiment: Binding affinity to 3'-r(CUUCCAGUUUCAUAGAGA)-5' RNA assessed as fluorescence quenching by spectrophotometry
[8] = tested on: Nucleic Acid; experiment: Binding affinity to 3'-r(CUUCCAGUUGCAUAGAGA)-5' RNA assessed as fluorescence quenching by spectrophotometry

Structure (SMILES) | ΔTm [1] [°C] | Activity [2] | Activity [3] | ΔTm [4] [°C] | ΔTm [5] [°C] | Activity [6] | Activity [7] | Activity [8] | Activity [5] | ΔTm [6] [°C]
Cc1cn([C@H]2C[C@H](OP(=O)(O)OC[C@H]3O[C@@H](n4ccc(N)nc4=O)C[C@@H]3OP(=O)(O)OC[C@H]3O[C@@H](n4cnc5c(N)ncnc54)C[C@@H]3OP(=O)(O)OC[C@H]3O[C@@H](n4cnc5c(N)ncnc54)C[C@@H]3OP(=O)(O)OC[C@H]3O[C@@H](n4cnc5c(=O)[nH]c(N)nc54)C[C@@H]3OP(=O)(O)OC[C@H](Cn3cnc4cc5c(N)nc(N)nc5nc43)OP(=O)(O)OC[C@H]3O[C@@H](n4cnc5c(=O)[nH]c(N)nc54)C[C@@H]3OP(=O)(O)CC[C@H]3O[C@@H](n4cc(C)c(=O)[nH]c4=O)C[C@@H]3OP(=O)(O)OC[C@H]3O[C@@H](n4cnc5c(N)ncnc54)C[C@@H]3OP(=O)(O)OC[C@H]3O[C@@H](n4cc(C)c(=O)[nH]c4=O)C[C@@H]3OP(=O)(O)OC[C@H]3O[C@@H](n4ccc(N)nc4=O)C[C@@H]3OP(=O)(O)OC[C@H]3O[C@@H](n4cc(C)c(=O)[nH]c4=O)C[C@@H]3OP(=O)(O)OC[C@H]3O[C@@H](n4ccc(N)nc4=O)C[C@@H]3OP(=O)(O)OC[C@H]3O[C@@H](n4cc(C)c(=O)[nH]c4=O)C[C@@H]3O)[C@@H](COP(=O)(O)O[C@H]3C[C@H](n4cnc5c(=O)[nH]c(N)nc54)O[C@@H]3COP(=O)(O)O[C@H]3C[C@H](n4cnc5c(=O)[nH]c(N)nc54)O[C@@H]3COP(=O)(O)O[C@H]3C[C@H](n4cnc5c(N)ncnc54)O[C@@H]3COP(=O)(O)O[C@H]3C[C@H](n4cnc5c(N)ncnc54)O[C@@H]3COP(=O)(O)O[C@H]3C[C@H](n4cnc5c(=O)[nH]c(N)nc54)O[C@@H]3CO)O2)c(=O)nc1N | -3.1 | inactive | Active | -3 | -2.9 | inactive | Active | Active | – | –
Cc1cn([C@H]2C[C@H](OP(=O)(O)OC[C@H]3O[C@@H](n4ccc(N)nc4=O)C[C@@H]3OP(=O)(O)OC[C@H]3O[C@@H](n4cnc5c(N)ncnc54)C[C@@H]3OP(=O)(O)OC[C@H]3O[C@@H](n4cnc5c(N)ncnc54)C[C@@H]3OP(=O)(O)OC[C@H](Cn3cnc4cc5c(N)nc(N)nc5nc43)OP(=O)(O)OC[C@H]3O[C@@H](n4cnc5c(=O)[nH]c(N)nc54)C[C@@H]3OP(=O)(O)OC[C@H]3O[C@@H](n4cnc5c(=O)[nH]c(N)nc54)C[C@@H]3OP(=O)(O)CC[C@H]3O[C@@H](n4cc(C)c(=O)[nH]c4=O)C[C@@H]3OP(=O)(O)OC[C@H]3O[C@@H](n4cnc5c(N)ncnc54)C[C@@H]3OP(=O)(O)OC[C@H]3O[C@@H](n4cc(C)c(=O)[nH]c4=O)C[C@@H]3OP(=O)(O)OC[C@H]3O[C@@H](n4ccc(N)nc4=O)C[C@@H]3OP(=O)(O)OC[C@H]3O[C@@H](n4cc(C)c(=O)[nH]c4=O)C[C@@H]3OP(=O)(O)OC[C@H]3O[C@@H](n4ccc(N)nc4=O)C[C@@H]3OP(=O)(O)OC[C@H]3O[C@@H](n4cc(C)c(=O)[nH]c4=O)C[C@@H]3O)[C@@H](COP(=O)(O)O[C@H]3C[C@H](n4cnc5c(=O)[nH]c(N)nc54)O[C@@H]3COP(=O)(O)O[C@H]3C[C@H](n4cnc5c(=O)[nH]c(N)nc54)O[C@@H]3COP(=O)(O)O[C@H]3C[C@H](n4cnc5c(N)ncnc54)O[C@@H]3COP(=O)(O)O[C@H]3C[C@H](n4cnc5c(N)ncnc54)O[C@@H]3COP(=O)(O)O[C@H]3C[C@H](n4cnc5c(=O)[nH]c(N)nc54)O[C@@H]3CO)O2)c(=O)nc1N | -5.9 | inactive | Active | -4.3 | -4.6 | inactive | Active | Active | – | –
Cc1cn([C@H]2C[C@H](OP(=O)(O)OC[C@H]3O[C@@H](n4ccc(N)nc4=O)C[C@@H]3OP(=O)(O)OC[C@H]3O[C@@H](n4cnc5c(N)ncnc54)C[C@@H]3OP(=O)(O)OC[C@H]3O[C@@H](n4cnc5c(N)ncnc54)C[C@@H]3OP(=O)(O)OC[C@H](Cn3cnc4cc5c(N)nc(N)nc5nc43)OP(=O)(O)OC[C@H]3O[C@@H](n4cnc5c(N)ncnc54)C[C@@H]3OP(=O)(O)OC[C@H]3O[C@@H](n4cnc5c(=O)[nH]c(N)nc54)C[C@@H]3OP(=O)(O)CC[C@H]3O[C@@H](n4cc(C)c(=O)[nH]c4=O)C[C@@H]3OP(=O)(O)OC[C@H]3O[C@@H](n4cnc5c(N)ncnc54)C[C@@H]3OP(=O)(O)OC[C@H]3O[C@@H](n4cc(C)c(=O)[nH]c4=O)C[C@@H]3OP(=O)(O)OC[C@H]3O[C@@H](n4ccc(N)nc4=O)C[C@@H]3OP(=O)(O)OC[C@H]3O[C@@H](n4cc(C)c(=O)[nH]c4=O)C[C@@H]3OP(=O)(O)OC[C@H]3O[C@@H](n4ccc(N)nc4=O)C[C@@H]3OP(=O)(O)OC[C@H]3O[C@@H](n4cc(C)c(=O)[nH]c4=O)C[C@@H]3O)[C@@H](COP(=O)(O)O[C@H]3C[C@H](n4cnc5c(=O)[nH]c(N)nc54)O[C@@H]3COP(=O)(O)O[C@H]3C[C@H](n4cnc5c(=O)[nH]c(N)nc54)O[C@@H]3COP(=O)(O)O[C@H]3C[C@H](n4cnc5c(N)ncnc54)O[C@@H]3COP(=O)(O)O[C@H]3C[C@H](n4cnc5c(N)ncnc54)O[C@@H]3COP(=O)(O)O[C@H]3C[C@H](n4cnc5c(=O)[nH]c(N)nc54)O[C@@H]3CO)O2)c(=O)nc1N | -3.5 | Active | Active | -2.9 | – | – | inactive | Active | inactive | -3.4
Cc1cn([C@H]2C[C@H](OP(=O)(O)OC[C@H]3O[C@@H](n4ccc(N)nc4=O)C[C@@H]3OP(=O)(O)OC[C@H]3O[C@@H](n4cnc5c(N)ncnc54)C[C@@H]3OP(=O)(O)OC[C@H]3O[C@@H](n4cnc5c(N)ncnc54)C[C@@H]3OP(=O)(O)OC[C@H](Cn3cnc4cc5c(N)ncnc5nc43)OP(=O)(O)OC[C@H]3O[C@@H](n4cnc5c(N)ncnc54)C[C@@H]3OP(=O)(O)OC[C@H]3O[C@@H](n4cnc5c(=O)[nH]c(N)nc54)C[C@@H]3OP(=O)(O)CC[C@H]3O[C@@H](n4cc(C)c(=O)[nH]c4=O)C[C@@H]3OP(=O)(O)OC[C@H]3O[C@@H](n4cnc5c(N)ncnc54)C[C@@H]3OP(=O)(O)OC[C@H]3O[C@@H](n4cc(C)c(=O)[nH]c4=O)C[C@@H]3OP(=O)(O)OC[C@H]3O[C@@H](n4ccc(N)nc4=O)C[C@@H]3OP(=O)(O)OC[C@H]3O[C@@H](n4cc(C)c(=O)[nH]c4=O)C[C@@H]3OP(=O)(O)OC[C@H]3O[C@@H](n4ccc(N)nc4=O)C[C@@H]3OP(=O)(O)OC[C@H]3O[C@@H](n4cc(C)c(=O)[nH]c4=O)C[C@@H]3O)[C@@H](COP(=O)(O)O[C@H]3C[C@H](n4cnc5c(=O)[nH]c(N)nc54)O[C@@H]3COP(=O)(O)O[C@H]3C[C@H](n4cnc5c(=O)[nH]c(N)nc54)O[C@@H]3COP(=O)(O)O[C@H]3C[C@H](n4cnc5c(N)ncnc54)O[C@@H]3COP(=O)(O)O[C@H]3C[C@H](n4cnc5c(N)ncnc54)O[C@@H]3COP(=O)(O)O[C@H]3C[C@H](n4cnc5c(=O)[nH]c(N)nc54)O[C@@H]3CO)O2)c(=O)nc1N | – | Active | Active | – | – | – | inactive | Active | – | –
Cc1cn([C@H]2C[C@H](OP(=O)(O)OC[C@H]3O[C@@H](n4ccc(N)nc4=O)C[C@@H]3OP(=O)(O)OC[C@H]3O[C@@H](n4cnc5c(N)ncnc54)C[C@@H]3OP(=O)(O)OC[C@H]3O[C@@H](n4cnc5c(N)ncnc54)C[C@@H]3OP(=O)(O)OC[C@H]3O[C@@H](n4cnc5c(=O)[nH]c(N)nc54)C[C@@H]3OP(=O)(O)OC[C@H](Cn3cnc4cc5c(N)ncnc5nc43)OP(=O)(O)OC[C@H]3O[C@@H](n4cnc5c(=O)[nH]c(N)nc54)C[C@@H]3OP(=O)(O)CC[C@H]3O[C@@H](n4cc(C)c(=O)[nH]c4=O)C[C@@H]3OP(=O)(O)OC[C@H]3O[C@@H](n4cnc5c(N)ncnc54)C[C@@H]3OP(=O)(O)OC[C@H]3O[C@@H](n4cc(C)c(=O)[nH]c4=O)C[C@@H]3OP(=O)(O)OC[C@H]3O[C@@H](n4ccc(N)nc4=O)C[C@@H]3OP(=O)(O)OC[C@H]3O[C@@H](n4cc(C)c(=O)[nH]c4=O)C[C@@H]3OP(=O)(O)OC[C@H]3O[C@@H](n4ccc(N)nc4=O)C[C@@H]3OP(=O)(O)OC[C@H]3O[C@@H](n4cc(C)c(=O)[nH]c4=O)C[C@@H]3O)[C@@H](COP(=O)(O)O[C@H]3C[C@H](n4cnc5c(=O)[nH]c(N)nc54)O[C@@H]3COP(=O)(O)O[C@H]3C[C@H](n4cnc5c(=O)[nH]c(N)nc54)O[C@@H]3COP(=O)(O)O[C@H]3C[C@H](n4cnc5c(N)ncnc54)O[C@@H]3COP(=O)(O)O[C@H]3C[C@H](n4cnc5c(N)ncnc54)O[C@@H]3COP(=O)(O)O[C@H]3C[C@H](n4cnc5c(=O)[nH]c(N)nc54)O[C@@H]3CO)O2)c(=O)nc1N | – | inactive | Active | – | – | – | Active | Active | – | –
